The values that follow come from paper PMC10195144, “Purification and characterization of a cold-active myrosinase from marine Pseudomonas oleovorans SuMy07” (Acta Biochimica et Biophysica Sinica, 2023).

The experiment relates to T1, myrosinase of SuMy07.
T1 construct: gene beta-thioglucoside glucohydrolase; native enzyme purified from the marine isolate (ultrafiltration, ammonium sulfate, Superdex 200); two subunits of 65 kDa
Description: double-reciprocal plot of sinigrin hydrolysis. Type of experiment: biochemical, Pseudomonas oleovorans. The note with it: pH 7.0, 25 °C.

With `C=CC/C(=N/OS(=O)(=O)O)S[C@@H]1O[C@H](CO)[C@@H](O)[C@H](O)[C@H]1O` [sinigrin hydrate], the Michaelis-Menten constant (Km) came to 1400 µM.

The Km is the concentration of substrate that gives half-maximal velocity.
